Assay results: patent US7659071B2, “Methods and compositions relating to HPV-associated pre-cancerous and cancerous growths, including CIN” (Board of Regents, the University of Texas System, priority 2001, dated 2010)
“And” between values parts separate entries of the source, which are not always exact repeats. Identical values can stand only once.

Columns and labels:
[1] = tested on: PBMC; test: T-cell proliferation assay ([3H]thymidine incorporation, stimulation index); type: cell-based, human
Experimental: The proliferative responses of PBMCs from different samples can be determined by the standard ^3[H]thymidine incorporation assay as described in published articles (Nehete, 1996; Nehete, 1995). The significance of T-cell proliferative responses to the individual E6 and E7 peptides (in terms of stimulation index [SI]) can be calculated as the fold increase of ^3[H]thymidine incorporation by cells exposed to the peptide over that by the control to which no peptide was added. An SI value of at least 2.0, including at least about 2.1, 2.2, 2.3, 2.4, 2.5, 2.6, 2.7, 2.8, 2.9, 3.0, 3.1, 3.2, 3.3, 3.4, 3.5, 3.6, 3.7, 3.8, 3.9, 4.0 or more, which are considered positive responses. Generally, an SI value is calculated by measuring the amount of radioactivity (cpm) in media from cells incubated with the peptide(s) and dividing by the amount of radioactivity in media from cells not incubated with peptide(s) (media alone).
Heparinized blood was collected from the study participants by venipuncture. PBMCs were isolated by centrifugation on a Ficoll-Hypaque density gradient ([…]; Sigma Chemical Co., St. Louis, Mo.). The proliferative responses of PBMC from different individuals after stimulation with PHA, c-mos peptide, or individual E6 and E7 peptides (Table 4) were determined using the [^3H]thymidine incorporation assay as previously described Nehete et al., 1996). Briefly, each sample was seeded in triplicate in 96-well microtiter plates and incubated for 7 days at 37° C. in a humidified 5% CO2 atmosphere. During the final 16-18 h, 1 μCi of ^3[H]thymidine (6.7 Ci/mmol; ICN Biomedicals, Inc., Costa Mesa, Calif.) was added. The cells were harvested onto filter strips to estimate ^3[H]thymidine incorporation. The specific radioactivity of cells treated with various additions was calculated in each case by subtracting the counts per minute (cpm) values obtained with cells cultured in medium alone. […] The significance of T-cell proliferative responses to the individual E6 and E7 peptides (in terms of stimulation index [SI]) was calculated as the fold increase of [^3H]thymidine incorporation by cells exposed to the peptide over that by the control to which no peptide was added. An SI value ≧3.0, which was considered a positive response, was used for all statistical analyses to determine the significance of proliferative responses and the association with disease-free or disease-recurrence status.

[2] = tested on: PBMC; test: Cytokine analysis of PBMC culture supernatants (Cytoscreen immunoassay kits); type: cell-based, human; details: 48 h; for IL-4 production, number of patients positive/number tested: positive = above kit sensitivity 2.0 pg/ml; for IL-10 production, number of patients positive/number tested: positive = above kit sensitivity 5.0 pg/ml; for EL-12 production, number of patients positive/number tested: positive = above kit sensitivity IL-12 = 1.0 pg/ml; for IFN-γ production, number of patients positive/number tested: positive = above kit sensitivity 4.0 pg/ml; for EL-2 production, number of patients positive/number tested: positive = above kit sensitivity IL-2 = 8.7 pg/ml
Experimental: Cryopreserved PBMC were used for these assays. The PBMC (1×10^5) were incubated with various HPV peptides in RPMI-1640 medium (containing 10% fetal calf serum) in triplicate wells of 96-well round-bottom plates for 48 h at 37° C. Supernatants (100 μl) were removed from each well after centrifugation and stored frozen at −70° C. in another 96-well plate. The plates were then thawed and the supernatants assayed for various cytokines (IFN-γ, IL-2, IL-4, IL-10, and IL-12) using the Cytoscreen immunoassay kits (Biosource International, Camarillo, Calif.) according to the manufacturer's instructions.

Question: With “VYDFAFRDLC (listed as Human papillomavirus) [V10C, E6 peptide from HPV-16, aa 49-58]” as the sequence, how does the “level of proliferative responses compared with the other peptides” value (“level … compared with the other peptides” for short) [1] read?
Answer: higher levels of proliferative responses

Question: What about the “Proliferative Response No (SI < 3.0) to specific peptide, number (%) of women” value (shortened to “Proliferative Response No … (%) of women”) ([1]; Group 3 (disease-free), n = 22) of the same sequence?
Answer: 11 (50%)

Question: And the “Proliferative Response No … (%) of women” value ([1]; Group 4 (recurrence), n = 10)?
Answer: 10 (100%)

Question: For “STRTPEDSNSLGT (Murine) [c-mos peptide, peptide from the c-mos protooncogene, aa 158-170, used as a negative control, reference compound]”, which “stimulation index (SI), proliferative response” value ([1]; women in the four study groups) is on record?
Answer: < 2.0

Question: Which “level … compared with the other peptides” value [1] does the source give for “QLLRREVYDFAFRDL (listed as Human papillomavirus) [Q15L, E6 peptide from HPV-16, aa 43-57]” here?
Answer: higher levels of proliferative responses

Question: What about the “Proliferative Response No … (%) of women” value ([1]; Group 3 (disease-free), n = 22) of the same sequence?
Answer: 11 (50%)

Question: What about the “Proliferative Response No … (%) of women” value ([1]; Group 4 (recurrence), n = 10) of the same sequence?
Answer: 10 (100%)

Question: What about the “IL-4 production, number of patients positive/number tested” value ([2]; Group 3 (n = 8)) of the same sequence?
Answer: none and 0/8

Question: And the “IL-10 production, number of patients positive/number tested” value ([2]; Group 3 (n = 8))?
Answer: 3 and 3/8

Question: What about the “EL-12 production, number of patients positive/number tested” value ([2]; Group 3 (n = 8)) of the same sequence?
Answer: 3 of 8 and 3/8

Question: And the “IL-4 production, number of patients positive/number tested” value ([2]; Group 4 (n = 6))?
Answer: 1 of the 6 and 1/6

Question: And the “IFN-γ production, number of patients positive/number tested” value ([2]; Group 4 (n = 6))?
Answer: 0/6

Question: And the “IL-10 production, number of patients positive/number tested” value ([2]; Group 4 (n = 6))?
Answer: 5 of 6 and 5/6

Question: What about the “EL-2 production, number of patients positive/number tested” value ([2]; Group 4 (n = 6)) of the same sequence?
Answer: 0/6

Question: What about the “EL-12 production, number of patients positive/number tested” value ([2]; Group 4 (n = 6)) of the same sequence?
Answer: 0/6

Question: What does the source list for “RAHYNIVTF (listed as Human papillomavirus) [R9F, E7 peptide from HPV-16, aa 49-57]”?
Answer: level of proliferative responses compared with the other peptides [1]: higher levels of proliferative responses; Proliferative Response No (SI < 3.0) to specific peptide, number (%) of women ([1]; Group 3 (disease-free), n = 22): 12 (54%)

Question: With “QAEPDRAHYNIVTFCCKCD (listed as Human papillomavirus) [Q19D, E7 peptide from HPV-16, aa 44-62]” as the sequence, how does the “level … compared with the other peptides” value [1] read?
Answer: higher levels of proliferative responses

Question: And the “Proliferative Response No … (%) of women” value ([1]; Group 3 (disease-free), n = 22)?
Answer: 9 (41%)

Question: What about the “Proliferative Response No … (%) of women” value ([1]; Group 4 (recurrence), n = 10) of the same sequence?
Answer: 10 (100%)

Question: And the “IL-4 production, number of patients positive/number tested” value ([2]; Group 3 (n = 8))?
Answer: none and 0/8

Question: What about the “IL-10 production, number of patients positive/number tested” value ([2]; Group 3 (n = 8)) of the same sequence?
Answer: 3 and 3/8

Question: And the “EL-12 production, number of patients positive/number tested” value ([2]; Group 3 (n = 8))?
Answer: 6 of 8 and 6/8

Question: What about the “IL-4 production, number of patients positive/number tested” value ([2]; Group 4 (n = 6)) of the same sequence?
Answer: 1 of the 6 and 1/6

Question: And the “IFN-γ production, number of patients positive/number tested” value ([2]; Group 4 (n = 6))?
Answer: 0/6

Question: And the “IL-10 production, number of patients positive/number tested” value ([2]; Group 4 (n = 6))?
Answer: 6 of 6 and 6/6

Question: What about the “EL-2 production, number of patients positive/number tested” value ([2]; Group 4 (n = 6)) of the same sequence?
Answer: 0/6

Question: What about the “EL-12 production, number of patients positive/number tested” value ([2]; Group 4 (n = 6)) of the same sequence?
Answer: 1/6
